Assay results taken from patent publication US9273095B2, “Antibiotic peptide and preparation method therefor and application therefor” (priority 2011, dated 2016).
Marks after values point to notes of the source that are not given here. Non-standard residues stand in square brackets, D forms with d. Residues, ends and D or L forms follow the SMILES beside them.

Tests used:
Type in all cases: in vivo, ICR mice
Staphylococcus aureus = assay: Therapeutic test of injection on mice with systemic infection, survival time; details: for Mean survival Time: observed fourteen days; for Mean survival Time / Mortality of mice in different days after infection: n = 10
Text: (§1) There are 30 male and 30 female ICR mice with the weight ranging from 18 g to 22 g. According to their weight, they are randomly divided into 6 groups of 10 mice: blank control group, negative control group, Levofloxacin positive control group, PL-13 (SEQ ID NO: 1) high dose group, PL-13 (SEQ ID NO: 1) middle dose group and PL-13 (SEQ ID NO: 1) low dose group. Each group is raised in the same plastic case. With trinitrophenal marking method, all the mice are raised with ordinary animal feeds in the ordinary animal houses and they can drink water freely. Alternating of light and dark is conducted every 12 hours.
(§2) 2. Infected Strains: Pseudomonas aeruginosa and Staphylococcus aureus
(§3) PL-18 (SEQ ID NO: 1) freeze-dried powder injections (supplied by Jiangsu ProteLight Pharmaceutical & Biotechnology Co., LTD.), Levofloxacin Hydrochloride and Sodium Chloride Injection (supplied by Yangtze River Pharmaceutical Group) and 0.9% Sodium Chloride Injection (supplied by Chifeng Rongjitang Pharmaceutical CO., Ltd.)
(§4) (1) The preparation of bacterial suspension is the same as above.
(§5) (2) The Pseudomonas aeruginosa suspension cultured overnight is diluted to 1×10^9CFU/ml. The Staphylococcus aureus suspension cultured overnight is diluted to 1×10^8CFU/ml. They are all applied in reserve.
(§6) (3) Except the blank control group, every other mouse is injected with 0.2 ml Pseudomonas aeruginosa suspension with the concentration of 1×10^9CFU/ml or 0.2 ml Staphylococcus aureus suspension with the concentration of 1×10^8CFU/ml intraperitoneally to make model.
(§7) (4) Administration: Inject the drugs according to weight right after the model is ready. All the groups excepting the blank and the negative infected group are injected with different dosage of different injections through caudal vena twice a day successively for three days, and they are observed for fourteen days.
(§8) (5) Observe death of the animals and record their survival time.

Pseudomonas aeruginosa = assay: as above; details: for Mean survival Time: observed fourteen days; for Mean survival Time / Mortality of mice in different days after infection: n = 10
Text: as §1, §2, §3, §4, §5, §6, §7, §8

[1] = test system: Staphylococcus aureus ATCC25923; assay: Anti-infection test of externally-applied agent on skin, viable count; details: for viable count, Liver (1:5) / viable count, Skin (1:10) / viable count, Spleen (1:5) / viable count, Whole blood: 0.1 ml morning and evening for 7 days, n = 10
Text: (§9) 1. Experimental Strains: Staphylococcus epidermidis ATCC12228 and Staphylococcus aureus ATCC25923
(§10) There are 50 male ICR mice with the weight of 20±2 g. According to their weight, they are randomly divided into 5 groups of 10 mice: negative infected control group, Bactroban positive control group, 1% concentration cream group, 1‰ concentration cream group and blank ground substance group. Each group is raised in the same plastic case. Their blank parts, heads, necks, backs and tails are marked with picric acid marking method. All the mice are raised with ordinary animal feeds in the ordinary animal houses and they could drink water freely. Alternating of light and dark is conducted every 12 hours.
(§11) There are preparation of 1% concentration, 1‰ concentration, and blank ground substance preparation (supplied by Jiangsu ProteLight Pharmaceutical & Biotechnology Co., LTD.) and Bactroban (supplied by SK&F).
(§12) (1) The bacteria strains which preserved in liquid nitrogen are inoculated to MHB plate and cultured overnight at 37° C.
(§13) (2) The solid strains are inoculated to MHB liquid medium and overnight cultured shakily at the speed of 220 rpm at 37° C.
(§14) (3) The bacterial suspension cultured overnight is diluted to 5×10^6CFU/ml and applied in reserve.
(§15) (4) Skin modeling: Mice's back are sheared and depilated by depilatory paste. After the hair off, they are abraded with 0.3 mm-long sandpaper to bleeding and injected 0.1 ml bacterial suspension with the concentration of 5×10^6CFU/ml subcutaneously.
(§16) (5) Administration: All the groups except the negative infected control group are respectively applied different cream with the dosage of 0.1 ml once respectively in the morning and evening for 7 days.
(§17) (6) After 7 days, the visceral organs, blood and infected skin of mice are collected by aseptic method to count viable bacteria.

[2] = test system: Staphylococcus epidermidis ATCC12228; assay: as above; details: for viable count, Liver (1:5) / viable count, Skin (1:10) / viable count, Spleen (1:5) / viable count, Whole blood: 0.1 ml morning and evening for 7 days, n = 10
Text: as §9, §10, §11, §12, §13, §14, §15, §16, §17

[3] = 0.2 mg/kg (low) caudal vena twice a day for three days
[4] = 1 mg/kg (middle) caudal vena twice a day for three days
[5] = 5 mg/kg (high) caudal vena twice a day for three days
[6] = day 1, 0.2 mg/kg (low) caudal vena twice a day for three days
[7] = day 1, 1 mg/kg (middle) caudal vena twice a day for three days
[8] = day 1, 5 mg/kg (high) caudal vena twice a day for three days
[9] = day 2, 0.2 mg/kg (low) caudal vena twice a day for three days
[10] = day 2, 1 mg/kg (middle) caudal vena twice a day for three days
[11] = day 2, 5 mg/kg (high) caudal vena twice a day for three days
[12] = day 3, 0.2 mg/kg (low) caudal vena twice a day for three days
[13] = day 3, 1 mg/kg (middle) caudal vena twice a day for three days
[14] = day 3, 5 mg/kg (high) caudal vena twice a day for three days
[15] = day 4, 0.2 mg/kg (low) caudal vena twice a day for three days
[16] = day 4, 1 mg/kg (middle) caudal vena twice a day for three days
[17] = day 4, 5 mg/kg (high) caudal vena twice a day for three days
[18] = day 5, 0.2 mg/kg (low) caudal vena twice a day for three days
[19] = day 5, 1 mg/kg (middle) caudal vena twice a day for three days
[20] = day 5, 5 mg/kg (high) caudal vena twice a day for three days

CC(=O)N[C@H](Cc1ccccc1)C(=O)N[C@H](CCCCN)C(=O)N[C@H](CCCCN)C(=O)N[C@H](CC(C)C)C(=O)N[C@H](CCCCN)C(=O)N[C@H](CCCCN)C(=O)N[C@H](CC(C)C)C(=O)N[C@H](Cc1ccccc1)C(=O)N[C@H](CO)C(=O)N[C@H](CCCCN)C(=O)N[C@H](CC(C)C)C(=O)N[C@H](Cc1c[nH]c2ccccc12)C(=O)N[C@H](CC(N)=O)C(=O)N[C@H](Cc1c[nH]c2ccccc12)C(=O)N[C@H](CCCCN)C(N)=O [PL-18] (Ac-[dF][dK][dK][dL][dK][dK][dL][dF][dS][dK][dL][dW][dN][dW][dK]-NH2)
Mean survival Time (Staphylococcus aureus; [3]): 6.3** day
Mean survival Time (Staphylococcus aureus; [4]): 7.3** day
Mean survival Time (Staphylococcus aureus; [5]): 9.9** day
Mortality of mice in different days after infection (Staphylococcus aureus; [6]): 1
Mortality of mice in different days after infection (Staphylococcus aureus; [7]): 1
Mortality of mice in different days after infection (Staphylococcus aureus; [8]): 0
Mortality of mice in different days after infection (Staphylococcus aureus; [9]): 2
Mortality of mice in different days after infection (Staphylococcus aureus; [10]): 2
Mortality of mice in different days after infection (Staphylococcus aureus; [11]): 1
Mortality of mice in different days after infection (Staphylococcus aureus; [12]): 1
Mortality of mice in different days after infection (Staphylococcus aureus; [13]): 1
Mortality of mice in different days after infection (Staphylococcus aureus; [14]): 1
Mortality of mice in different days after infection (Staphylococcus aureus; [15]): 2
Mortality of mice in different days after infection (Staphylococcus aureus; [16]): 1
Mortality of mice in different days after infection (Staphylococcus aureus; [17]): 1
Mortality of mice in different days after infection (Staphylococcus aureus; [18]): 1
Mortality of mice in different days after infection (Staphylococcus aureus; [19]): 1
Mortality of mice in different days after infection (Staphylococcus aureus; [20]): 2
anti-infection effect (in words) (Staphylococcus aureus; high, middle and low dose injection, systemic infection of Staphylococcus aureus): very good
Mean survival Time (Pseudomonas aeruginosa; [3]): 6.7** day
Mean survival Time (Pseudomonas aeruginosa; [4]): 7.7** day
Mean survival Time (Pseudomonas aeruginosa; [5]): 8.6** day
Mortality of mice in different days after infection (Pseudomonas aeruginosa; [6]): 0
Mortality of mice in different days after infection (Pseudomonas aeruginosa; [7]): 0
Mortality of mice in different days after infection (Pseudomonas aeruginosa; [8]): 0
Mortality of mice in different days after infection (Pseudomonas aeruginosa; [9]): 2
Mortality of mice in different days after infection (Pseudomonas aeruginosa; [10]): 1
Mortality of mice in different days after infection (Pseudomonas aeruginosa; [11]): 1
Mortality of mice in different days after infection (Pseudomonas aeruginosa; [12]): 1
Mortality of mice in different days after infection (Pseudomonas aeruginosa; [13]): 2
Mortality of mice in different days after infection (Pseudomonas aeruginosa; [14]): 2
Mortality of mice in different days after infection (Pseudomonas aeruginosa; [15]): 2
Mortality of mice in different days after infection (Pseudomonas aeruginosa; [16]): 2
Mortality of mice in different days after infection (Pseudomonas aeruginosa; [17]): 2
Mortality of mice in different days after infection (Pseudomonas aeruginosa; [18]): 2
Mortality of mice in different days after infection (Pseudomonas aeruginosa; [19]): 1
Mortality of mice in different days after infection (Pseudomonas aeruginosa; [20]): 0
anti-infection effect (in words) (Pseudomonas aeruginosa; high, middle and low dose injection, systemic infection of Pseudomonas aeruginosa): very good
viable count, Liver (1:5) ([1]; 1% externally-applied agent): 9 CFU/plate
viable count, Skin (1:10) ([1]; 1% externally-applied agent): 997 CFU/plate
viable count, Spleen (1:5) ([1]; 1% externally-applied agent): 8 CFU/plate
viable count, Whole blood ([1]; 1% externally-applied agent): 16 CFU/plate
viable count, Liver (1:5) ([1]; 1‰ externally-applied agent): 11 CFU/plate
viable count, Skin (1:10) ([1]; 1‰ externally-applied agent): 1051 CFU/plate
viable count, Spleen (1:5) ([1]; 1‰ externally-applied agent): 15 CFU/plate
viable count, Whole blood ([1]; 1‰ externally-applied agent): 12 CFU/plate
inhibition of skin infection (in words) ([1]; externally-applied agent, twice daily for 7 days, Staphylococcus aureus): effective
viable count, Liver (1:5) ([2]; 1% externally-applied agent): 17 CFU/plate
viable count, Skin (1:10) ([2]; 1% externally-applied agent): 276 CFU/plate
viable count, Spleen (1:5) ([2]; 1% externally-applied agent): 5 CFU/plate
viable count, Whole blood ([2]; 1% externally-applied agent): 16 CFU/plate
viable count, Liver (1:5) ([2]; 1‰ externally-applied agent): 8 CFU/plate
viable count, Skin (1:10) ([2]; 1‰ externally-applied agent): 425 CFU/plate
viable count, Spleen (1:5) ([2]; 1‰ externally-applied agent): 13 CFU/plate
viable count, Whole blood ([2]; 1‰ externally-applied agent): 19 CFU/plate
inhibition of skin infection (in words) ([2]; externally-applied agent, twice daily for 7 days, Staphylococcus epidermidis): effective
